{"source": "paper PMC11438102", "about": "“Modulation of cannabinoid receptor 2 alters neuroinflammation and reduces formation of alpha-synuclein aggregates in a rat model of nigral synucleinopathy” (Journal of Neuroinflammation, 2024)", "key": {"[1]": {"test_system": "pSer129 and total human Asyn in striatum", "assay": "Western immunoblot of pSer129 and total human Asyn in striatal lysates", "format": "in vivo", "conditions": "rat low cohort, striatum ipsilateral to AAV, 6 mg/kg i.p. daily 7 weeks, vs vehicle", "experimental": "Sprague Dawley male rats (16–18 weeks of age, 400–525 g) were purchased from Charles River Laboratories and acclimated to Emory University animal facilities. Rats were pair housed in standard plexiglass cages under normal 12-hr light cycles and handled in accordance with protocols approved by the IACUC of Emory University in Atlanta, GA. Rats were administered unilateral injections of AAV2/5-human wild-type (WT) Asyn at titers of 2.9–4.3 × 10^11 vector genomes (vg)/mL (termed “low cohort”), which was previously shown to not induce nigral neurotoxicity. Thereby, generating a model with overexpression of human WT Asyn and Asyn-mediated neuroinflammation. […]\nStriatal tissue from successfully targeted low cohort rats was homogenized in ice-cold TriZOL lysed using the TissueLyser system. […] Total protein concentrations were measured using Pierce BCA Protein Assay Kit and equal amount of protein (10–20 µg) mixed with Laemmli sample buffer were loaded in 4–20% TGX precast gels (Biorad) for gel electrophoresis. […] Revert staining was captured and measured on the Licor Odyssey at 700 nm for 30 s.\nNon-specific protein binding was blocked with 5% milk and 0.1% Tween-20 in TBS for 1 h at room temperature, and membranes incubated with primary antibodies overnight at 4°C. […] The density of the band was quantified using StudioLite software. […]"}, "[2]": {"test_system": "deep cervical lymph nodes (DCLN) and splenocytes", "assay": "Flow cytometry of deep cervical lymph nodes and splenocytes (high cohort)", "format": "in vivo, rat", "conditions": "8-week endpoint"}}, "note": "Entries after “also recorded” stand apart in the source; their conditions may differ."}
{"smiles": "O=C(c1ccccc1)c1cc(O)c(-c2cc(Cl)cc(Cl)c2)c(O)c1", "note": "[SMM-189]", "values": [{"measurement": "pS129 levels in striatum, western", "setting": "[1]", "result": "reduced"}, {"measurement": "total human Asyn levels in striatum, western", "setting": "[1]", "result": "no differences"}, {"measurement": "DCLN myeloid populations including classical CD43-His48+ or CD11b+ monocytes", "setting": "[2]", "result": "No frequency difference"}, {"measurement": "Tregs (foxp3+CD4+) in DCLN", "setting": "[2]", "result": "significant reduction"}, {"measurement": "CD4 to CD8 lymphocyte ratio in DCLN", "setting": "[2]; p = 0.0503", "result": "trend was found in the CD4 to CD8 lymphocyte ratio to be decreased"}, {"measurement": "CD11b+ myeloid splenocytes", "setting": "[2]; p = 0.0541", "result": "trend to increase"}, {"measurement": "CD4 to CD8 lymphocyte ratio in spleen", "setting": "[2]; p = 0.0962", "result": "no effect; also recorded: trend was found in the CD4 to CD8 lymphocyte ratio to be decreased"}]}
